Here are results for two molecules from patent US11746109B2, “Crystalline forms of 2-[(2S)-1-azabicyclo[2.2.2]oct-2-yl]-6-(3-methyl-1H-pyrazol-4-yl)thieno[3,2-d]pyrimidin-4(3H)-one hemihydrate” (TAKEDA PHARMACEUTICAL COMPANY LIMITED, priority 2016, dated 2023).

Holding throughout (format): physicochemical
The nature of data set [1]: Solubility in 200 mM phosphate buffer (pH 6.8). Particulars: for solubility: 20 hrs, hemihydrate; for solubility at 20 h: phosphate buffer, pH 6.8, aqueous buffer, thermodynamic from solid. As to the method: About 2 mg of Compound 1 Crystalline Form A made in example 2 or Compound 1 Crystalline Form I made in example 3-2 and 2 mL of 200 mM phosphate buffer (pH 6.8) were added into a glass test tube. The test tube was shaken vigorously and incubated at 10° C., 20° C., 30° C. or 40° C. for 20 hrs. After the incubation, the suspension was centrifuged and the supernatant was filtered through a 0.22 μm pore membrane filter. The filtrate solutions were diluted 2-fold with 50 mM sodium perchlorate buffer (pH 2.5)/acetonitrile (1/1, v/v). Concentration was determined by HPLC.

Data set [2] can be described thus: Solubility in water/DMSO at 60° C. The following applies: for solubility at 24 h: water/DMSO, 60 °C, organic solvent or mixture, thermodynamic from solid; for solubility at 24 h / solubility: Water/DMSO at 60° C.; for solubility: hemihydrate. As to the method:
A solution of DMSO/water with known water content was added to a glass vial and heated to 60° C. Crystals of Compound 1 Crystalline Form I or Compound 1 Crystalline Form A were added to the vial until a suspension was obtained. The suspension was stirred via magnetic stirring and incubated for 24 hrs at 60° C. After incubation, the suspension was filtered at 60° C. 10 μL of the filtrate was sampled and diluted with 990 μL of acetonitrile/water (1/1, v/v). Sample concentration of Compound 1 was determined by HPLC. […] The experimental solubility results are summarized below in Tables 5 and 6.

Data set [3] is described as follows: Hygroscopicity of crystalline forms.
Data set [4] is described as follows: Chemical and optical stability of crystalline forms on storage.
Data set [5] can be described thus: Estimated solubility at 55° C. in recrystallization solvents. Particulars: organic solvent or mixture, thermodynamic from solid. As to the method:
Recrystallization of Compound 1 Crystalline Form A was investigated in various solvent conditions. […] One of water, heptane or IPE was added as an anti-solvent to maintain the saturation state. Recrystallization in heptane yielded a sufficient amount of solids for analysis after gradual cooling. […] Crystals obtained from THF, trifluoroethanol, THF/heptane, chloroform/heptane, chloroform/IPE and trifluoroethanol/IPE were characterized as solvates by XRPD and TGA/DSC analysis. Crystals obtained from all other solvents were confirmed to be Compound 1 Crystalline Form A based on XRPD analysis.

Setting [6] is: 60° C./75% relative humidity (open) for at least eight weeks.
Setting [7] is: 80° C. (closed) for at least eight weeks.

A word on the solubility: it is the concentration that dissolves in the medium under given conditions. Consider `Cc1[nH]ncc1-c1cc2nc([C@@H]3CC4CCN3CC4)[nH]c(=O)c2s1` [Compound 1 Crystalline Form I, 2-[(2S)-1-azabicyclo[2.2.2]oct-2-yl]-6-(3-methyl-1H-pyrazol-4-yl)thieno[3,2-d]pyrimidin-4(3H)-one hemihydrate], for which the solubility in data set [1] (10 °C) came to 0.063 mg/mL; in data set [1] (20 °C) it was 0.071 mg/mL; in data set [1] (30 °C), 0.08 mg/mL; in data set [1] (40 °C), 0.099 mg/mL. The “Solubility in water/DMSO relative to Compound 1 Crystalline Form A” value in data set [2] (at 60° C. (FIG. 7)) is reported as “lower”. In addition, the solubility at 24 h worked out at 134 mg/mL in data set [2] (0 % water by volume); 108 mg/mL in data set [2] (3 % water by volume); 92.2 mg/mL in data set [2] (4 % water by volume); 74.8 mg/mL in data set [2] (4.5 % water by volume); 65.8 mg/mL in data set [2] (6 % water by volume); 34.8 mg/mL in data set [2] (8 % water by volume). The Hygroscopicity result in data set [3] (at 25° C.) and in data set [3] (at 40° C.) was “not hygroscopic” throughout. Further, the “Chemical and optical stability” value was “chemically and optically stable” in data set [4] (setting [6]); “chemically and optically stable” in data set [4] (setting [7]).
Take `Cc1[nH]ncc1-c1cc2nc([C@@H]3CC4CCN3CC4)[nH]c(=O)c2s1` [Compound 1 Crystalline Form A, 2-[(2S)-1-azabicyclo[2.2.2]oct-2-yl]-6-(3-methyl-1H-pyrazol-4-yl)thieno[3,2-d]pyrimidin-4(3H)-one hemihydrate]: the solubility is less than 2 mg/mL in data set [5] (solvent Acetone); less than 2 mg/mL in data set [5] (solvent Acetonitrile); 2.8 mg/mL in data set [5] (solvent Chloroform); 10.5 mg/mL in data set [5] (solvent Ethanol); less than 2 mg/mL in data set [5] (solvent Ethyl acetate); 10 mg/mL in data set [5] (solvent Formamide). The solubility in data set [5] (solvent IPA) is 6.7 mg/mL; in data set [5] (solvent MEK), 2.9 mg/mL; in data set [5] (solvent Methanol) it was 33.3 mg/mL; in data set [5] (solvent THF), 9.1 mg/mL; in data set [5] (solvent Toluene), less than 2 mg/mL; in data set [5] (solvent Trifluoroethanol), more than 100 mg/mL. The solubility in data set [2] (0 % water by volume) amounted to 153.8 mg/mL; in data set [2] (6 % water by volume), 73.4 mg/mL. Moreover, the solubility at 20 h in data set [1] (10 °C) was determined as 0.102 mg/mL; in data set [1] (20 °C) it was 0.104 mg/mL; in data set [1] (30 °C), 0.115 mg/mL; in data set [1] (40 °C), 0.136 mg/mL. The solubility at 24 h is 51 mg/mL in data set [2] (8.5 % water by volume); 44 mg/mL in data set [2] (8.7 % water by volume); 38.5 mg/mL in data set [2] (9.8 % water by volume); 32.1 mg/mL in data set [2] (10.7 % water by volume); 28.6 mg/mL in data set [2] (11.3 % water by volume); 25.7 mg/mL in data set [2] (11.8 % water by volume). Besides, the Hygroscopicity result in data set [3] (at 25° C.) and in data set [3] (at 40° C.) was “not hygroscopic” throughout. For the same molecule, the “Chemical and optical stability” value in data set [4] (setting [6]) is “chemically and optically stable”; in data set [4] (setting [7]) it was “chemically and optically stable”.
